From patent publication US7968556B2, “Heteroaryl compounds, compositions thereof, and methods of treatment therewith” (Signal Pharmaceuticals, LLC, priority 2006, dated 2011) come the findings set out here.

As for `COc1ccccc1-n1c(=O)[nH]c2c(C(N)=O)nc(-c3cccc(C#N)c3)nc21` [Compound 55, 2-(3-Cyanophenyl)-9-(2-methoxyphenyl)-8-oxo-8,9-dihydro-7H-purine-6-carboxamide], the melting point (in general, the temperature of the solid-liquid transition) is 316 to 318 °C.

`NC(=O)c1nc(-c2cccc(O)c2)nc2c1[nH]c(=O)n2-c1ccccc1Oc1ccccc1` [Compound 126, 2-(3-Hydroxyphenyl)-8-oxo-9-(2-phenoxyphenyl)-8,9-dihydro-7H-purine-6-carboxamide] registered a melting point of 329 to 331 °C.

For `COc1ccccc1-n1cnc2c(C(N)=O)nc(Nc3cccc(O)c3)nc21` [Compound 51, 2-(3-Hydroxyphenylamino)-9-(2-methoxyphenyl)-9H-purine-6-carboxamide], the melting point fell in the range of 155 to 157 °C.

Molecule `NC(=O)c1nc(-c2cccc(O)c2)nc2c1[nH]c(=O)n2C1CCOCC1` [Compound 151, 2-(3-Hydroxyphenyl)-8-oxo-9-(tetrahydro-2H-pyran-4-yl)-8,9-dihydro-7H-purine-6-carboxamide] gave a melting point of 361 to 363 °C.

The molecule `NC(=O)c1nc(-c2cncc(Cl)c2)nc2c1[nH]c(=O)n2-c1ccccc1C(F)(F)F` [Compound 103, 2-(5-Chloropyridin-3-yl)-8-oxo-9-(2-(trifluoromethyl)phenyl)-8,9-dihydro-7H-purine-6-carboxamide] gave a melting point of 230 to 232 °C.

Turning to `COc1ccccc1-n1c(=O)[nH]c2c(C(N)=O)nc(-c3ccc(C#N)cc3)nc21` [Compound 59, 2-(4-Cyano-phenyl)-9-(2-methoxy-phenyl)-8-oxo-8,9-dihydro-7H-purine-6-carboxamide], the melting point fell in the range of 335 to 338 °C.

For the molecule `COc1ccccc1-n1c(=O)[nH]c2c(C(N)=O)nc(-c3ccc4[nH]c(SC)nc4c3)nc21` [Compound 138, 9-(2-Methoxyphenyl)-2-(2-(methylthio)-1H-benzo[d]imidazol-5-yl)-8-oxo-8,9-dihydro-7H-purine-6-carboxamide], the melting point fell in the range of 244 to 245 °C.

For `COc1ccccc1-n1c(=O)[nH]c2c(C(N)=O)nc(NC[C@@H]3CCCN3)nc21` [Compound 114, (S)-9-(2-Methoxyphenyl)-8-oxo-2-(pyrrolidin-2-ylmethylamino)-8,9-dihydro-7H-purine-6-carboxamide], the melting point fell in the range of 160 to 165 °C.

`CO[C@H]1CC[C@@H](n2c(=O)[nH]c3c(C(N)=O)nc(-c4cccc(O)c4)nc32)CC1` [Compound 144, 9-(cis-4-Methoxycyclohexyl)-2-(3-hydroxyphenyl)-8-oxo-8,9-dihydro-7H-purine-6-carboxamide] had a melting point of 345 to 347 °C.

Take `NC(=O)c1nc(-c2cnc3nc[nH]c3c2)nc2c1[nH]c(=O)n2C1CCCCC1` [Compound 150, 9-Cyclohexyl-2-(1H-imidazo[4,5-b]pyridin-6-yl)-8-oxo-8,9-dihydro-7H-purine-6-carboxamide]: the melting point was 320 °C (dec.).

Consider `CO[C@H]1CC[C@@H](n2c(=O)[nH]c3c(C(N)=O)nc(-c4cnc5nc[nH]c5c4)nc32)CC1` [Compound 168, 2-(1H-Imidazo[4,5-b]pyridin-6-yl)-9-(cis-4-methoxycyclohexyl)-8-oxo-8,9-dihydro-7H-purine-6-carboxamide], for which the melting point was 360 °C (dec.).

With `CC(C)c1ccccc1-n1c(=O)[nH]c2c(C(N)=O)nc(-c3ccc(-c4ncc[nH]4)cc3)nc21` [Compound 133, 2-(4-(1H-Imidazol-2-yl)phenyl)-9-(2-isopropylphenyl)-8-oxo-8,9-dihydro-7H-purine-6-carboxamide], the melting point was 340 °C (dec.).

In turn, `NC(=O)c1nc(-c2cccc(O)c2)nc2c1[nH]c(=O)n2[C@@H]1CCOC1` [Compound 162, (R)-2-(3-Hydroxyphenyl)-8-oxo-9-(tetrahydrofuran-3-yl)-8,9-dihydro-7H-purine-6-carboxamide] gave a melting point of 353 to 355 °C.

Consider `CC(C)c1ccccc1-n1c(=O)[nH]c2c(C(N)=O)nc(-c3cnc4[nH]ccc4c3)nc21` [Compound 136, 9-(2-Isopropylphenyl)-8-oxo-2-(1H-pyrrolo[2,3-b]pyridin-5-yl)-8,9-dihydro-7H-purine-6-carboxamide], for which the melting point was 380 °C (dec.).

On to `NC(=O)c1nc(-c2cccc(O)c2)nc2c1[nH]c(=O)n2CC1CCCCC1` [Compound 140, 9-(Cyclohexylmethyl)-2-(3-hydroxyphenyl)-8-oxo-8,9-dihydro-7H-purine-6-carboxamide], for which the melting point is 368 to 370 °C.

The molecule `COc1ccccc1-n1c(=O)[nH]c2c(C(N)=O)nc(-c3cccc(C(N)=O)c3)nc21` [Compound 68, 2-(3-Carbamoylphenyl)-9-(2-methoxyphenyl)-8-oxo-8,9-dihydro-7H-purine-6-carbox amide] gave a melting point of 338 to 339 °C.

As for `NC(=O)c1nc(-c2cccc(O)c2)nc2c1[nH]c(=O)n2-c1ccccc1C(F)(F)F` [Compound 58, 2-(3-Hydroxyphenyl)-8-oxo-9-(2-(trifluoromethyl)phenyl)-8,9-dihydro-7H-purine-6-carboxamide], the melting point lay in the range of 363 to 365 °C.

With `CO[C@H]1CC[C@@H](n2c(=O)[nH]c3c(C(N)=O)nc(-c4ccc5nc[nH]c5c4)nc32)CC1` [Compound 167, 2-(1H-Benzo[d]imidazol-6-yl)-9-(cis-4-methoxycyclohexyl)-8-oxo-8,9-dihydro-7H-purine-6-carboxamide], the melting point is 345 °C (dec.).

In the case of `COc1ccccc1-n1cnc2c(C(N)=O)nc(-c3ccccc3O)nc21` [Compound 70, 2-(2-Hydroxyphenyl)-9-(2-methoxyphenyl)purine-6-carboxamide], the melting point was 278 to 280 °C.

Regarding `NC(=O)c1nc(-c2cnc3nc[nH]c3c2)nc2c1[nH]c(=O)n2-c1ccccc1C(F)(F)F` [Compound 137, 2-(1H-Imidazo[4,5-b]pyridin-6-yl)-8-oxo-9-(2-(trifluoromethyl)phenyl)-8,9-dihydro-7H-purine-6-carboxamide], the melting point came to 320 °C.

The molecule `COc1ccccc1-n1c(=O)[nH]c2c(C(N)=O)nc(-c3ccc4nc(C)[nH]c4c3)nc21` [Compound 122, 9-(2-Methoxyphenyl)-2-(2-methyl-1H-benzo[d]imidazol-6-yl)-8-oxo-8,9-dihydro-7H-purine-6-carboxamide] had a melting point of 270 °C.

For `COc1ccccc1-n1c(=O)[nH]c2c(C(N)=O)nc(N[C@H]3CC[C@@H](O)CC3)nc21` [Compound 110, 2-(cis-4-Hydroxycyclohexylamino)-9-(2-methoxyphenyl)-8-oxo-8,9-dihydro-7H-purine-6-carboxamide], the melting point is 295 to 297 °C.

`COc1ccccc1-n1c(=O)[nH]c2c(C(N)=O)nc(Nc3cccc(O)c3)nc21` [Compound 45, 2-(3-Hydroxyphenylamino)-9-(2-methoxyphenyl)-8-oxo-8,9-dihydro-7H-purine-6-carboxamide] registered a melting point of 190 to 191 °C.

The molecule `COc1ccccc1-n1c(=O)[nH]c2c(C(N)=O)nc(N[C@H]3CC[C@H](O)CC3)nc21` [Compound 108, 2-(trans-4-Hydroxycyclohexylamino)-9-(2-methoxyphenyl)-8-oxo-8,9-dihydro-7H-purine-6-carboxamide] displayed a melting point of 165 to 167 °C.

`COc1ccccc1-n1c(=O)[nH]c2c(C(N)=O)nc(NCCO)nc21` [Compound 116, 2-(2-Hydroxyethylamino)-9-(2-methoxyphenyl)-8-oxo-8,9-dihydro-7H-purine-6-carboxamide] yielded a melting point of 157 to 160 °C.

As to `CC(C)c1ccccc1-n1c(=O)[nH]c2c(C(N)=O)nc(-c3ccc(-n4ccnc4)cc3)nc21` [Compound 131, 2-(4-(1H-Imidazol-1-yl)phenyl)-9-(2-isopropylphenyl)-8-oxo-8,9-dihydro-7H-purine-6-carboxamide], the melting point came to 232 °C.

The molecule `COc1ccccc1-n1c(=O)[nH]c2c(C(N)=O)nc(Nc3cccc(CO)c3)nc21` [Compound 123, 2-(3-(Hydroxymethyl)phenylamino)-9-(2-methoxyphenyl)-8-oxo-8,9-dihydro-7H-purine-6-carboxamide] came in with a melting point of 237 to 239 °C.

For `NC(=O)c1nc(-c2cnccc2Cl)nc2c1[nH]c(=O)n2-c1ccccc1C(F)(F)F` [Compound 109, 2-(4-Chloropyridin-3-yl)-8-oxo-9-(2-(trifluoromethyl)phenyl)-8,9-dihydro-7H-purine-6-carboxamide], the melting point is 244 to 248 °C (dec.).

On to `COc1ccccc1-n1c(=O)[nH]c2c(C(N)=O)nc(N[C@@H]3CCNC3)nc21` [Compound 105, (R)-9-(2-Methoxyphenyl)-8-oxo-2-(pyrrolidin-3-ylamino)-8,9-dihydro-7H-purine-6-carboxamide], for which the melting point is greater than 400 °C.

Regarding `COc1ccccc1-n1c(=O)[nH]c2c(C(N)=O)nc(Nc3ccccc3O)nc21` [Compound 56, 2-(2-Hydroxyphenylamino)-9-(2-methoxyphenyl)-8-oxo-8,9-dihydro-7H-purine-6-carboxamide], the melting point lay in the range of 314 to 315 °C.

Molecule `COc1ccccc1-n1c(=O)[nH]c2c(C(N)=O)nc(-n3cnc4ccccc43)nc21` [Compound 134, 2-(1H-Benzo[d]imidazol-1-yl)-9-(2-methoxyphenyl)-8-oxo-8,9-dihydro-7H-purine-6-carboxamide] returned a melting point of 318 to 319 °C.

`NC(=O)c1nc(-c2cccc(O)c2)nc2c1[nH]c(=O)n2-c1ccccc1-c1ccccc1` [Compound 119, 9-(Biphenyl-2-yl)-2-(3-hydroxyphenyl)-8-oxo-8,9-dihydro-7H-purine-6-carboxamide] displayed a melting point of 293 to 296 °C.

Molecule `NC(=O)c1nc(-c2cccc(O)c2)nc2c1[nH]c(=O)n2[C@H]1CCOC1` [Compound 163, (S)-2-(3-Hydroxyphenyl)-8-oxo-9-(tetrahydrofuran-3-yl)-8,9-dihydro-7H-purine-6-carboxamide] yielded a melting point of 354 to 356 °C.

Consider `COc1ccccc1-n1c(=O)[nH]c2c(C(N)=O)nc(-c3cccc4[nH]ncc34)nc21` [Compound 128, 2-(1H-Indazol-4-yl)-9-(2-methoxyphenyl)-8-oxo-8,9-dihydro-7H-purine-6-carboxamide], for which the melting point is 280 °C.
